Assay results published in paper PMC10102067, “Synthesis of vancomycin fluorescent probes that retain antimicrobial activity, identify Gram-positive bacteria, and detect Gram-negative outer membrane damage” (Communications Biology, 2023).

Columns and labels:
E. coli = assay: microbe, parasite or virus in culture; conditions: 3 h
Procedure: Bacteria were obtained from the American Type Culture Collection (ATCC; Manassas, VA, USA), Merck Sharp & Dohme (Kenilworth, NJ), the Coli Genetic Stock Center (CGSC, Yale University), Network on Antimicrobial Resistance in Staphylococcus aureus (NARSA) via BEI Resources (www.beiresources.org) and independent academic clinical isolate and mutant collections. All species used in this study were described fully in Table S4. Bacteria were cultured in Cation-Adjusted Mueller-Hinton Broth (CAMHB, Bacto Laboratories, Cat No. 212322) or Muller Hinton Broth (MHB, Bacto Laboratories, Cat No. 211443) at 37 °C overnight. A sample of each culture was then diluted 50-fold in MHB and incubated at 37 °C for 1.5–3 h. The stock solutions of vancomycin probes 7, 8 and 9 were prepared at 1.28 mg/mL in sterile water. The compounds were serially diluted two-fold across the wells, with concentrations ranging from 0.06 µg/mL to 128 µg/mL, plated in duplicate. […]

S. aureus ATCC 25923 [1] = assay: Airyscan confocal super-resolution imaging, comparison of probes (Fig. S2C); type: cell-based; conditions: 2 and 16 µg/mL, 30 min 37 °C
Procedure: Figure S2. Comparison of probe 7 and probe 9 to commercial fluorescent probes using flow cytometry
and microscopy. […]
Van-BODIPY (V34850, Invitrogen™) in S. aureus ATCC 25923. Bacteria were stained with probes (2 and 16
µg/mL, Green) for 30 min at 37 °C. Arrows indicate cells with Van-BODIPY entering cytoplasm. Scale bar = 1 µm.

E. coli ATCC25922 = assay: Flow cytometry comparison with commercial fluorescent probes (Fig. S2B); type: cell-based; conditions: 2 and 16 µg/mL, 30 min 37 °C
Description: (§1) Figure S2. Comparison of probe 7 and probe 9 to commercial fluorescent probes using flow cytometry and microscopy. Labelling of S. aureus ATCC 25923 (A) and E. coli ATCC25922 (B) with vancomycin probe 7, probe 9, Van-FITC (SBR00028, Sigma-Aldrich), and Van-BODIPY (V34850, Invitrogen™) measured using flow […]
(§2) flow cytometer. The data are presented as the mean ± SEM (n = 3). GeoMean: Geometric Mean. (C) Airyscan confocal super-resolution imaging of vancomycin probe 7, probe 9, Van-FITC (SBR00028, Sigma-Aldrich), and Van-BODIPY (V34850, Invitrogen™) in S. aureus ATCC 25923. Bacteria were stained with probes (2 and 16 µg/mL, Green) for 30 min at 37 °C. Arrows indicate cells with Van-BODIPY entering cytoplasm. Scale bar = 1 µm.
(§3) (1 picture or pasted object on this page, not shown here)

S. aureus ATCC 25923 [2] = assay: Flow cytometry comparison with commercial fluorescent probes (Fig. S2A); type: cell-based; conditions: 2 and 16 µg/mL, 30 min 37 °C
Description: as §1, §2, §3

S. aureus = conditions: tested S. aureus strains (Table S3); dissolved in DMSO
Procedure: Bacteria were obtained from the American Type Culture Collection (ATCC; Manassas, VA, USA), Merck Sharp & Dohme (Kenilworth, NJ), the Coli Genetic Stock Center (CGSC, Yale University), Network on Antimicrobial Resistance in Staphylococcus aureus (NARSA) via BEI Resources (www.beiresources.org) and independent academic clinical isolate and mutant collections. All species used in this study were described fully in Table S4. Bacteria were cultured in Cation-Adjusted Mueller-Hinton Broth (CAMHB, Bacto Laboratories, Cat No. 212322) or Muller Hinton Broth (MHB, Bacto Laboratories, Cat No. 211443) at 37 °C overnight. A sample of each culture was then diluted 50-fold in MHB and incubated at 37 °C for 1.5–3 h. […] The compounds were serially diluted two-fold across the wells, with concentrations ranging from 0.06 µg/mL to 128 µg/mL, plated in duplicate. The resultant mid-log phase culture was diluted to 1 × 10^6 CFU/mL, then 50 µL was added to each well of the compound-containing 96-well plates (Corning, Cat. No 3641, non-binding surface (NBS) plates), giving a cell density of 5 × 10^5 CFU/mL, and a final compound concentration range of 0.03 µg/mL to 64 µg/mL.

SMILES: CN[C@H](CC(C)C)C(=O)N[C@H]1C(=O)N[C@@H](CC(N)=O)C(=O)N[C@H]2C(=O)N[C@H]3C(=O)N[C@H](C(=O)N[C@H](C(=O)O)c4cc(O)cc(O)c4-c4cc3ccc4O)[C@H](O)c3ccc(c(Cl)c3)Oc3cc2cc(c3O[C@@H]2O[C@H](CO)[C@@H](O)[C@H](O)[C@H]2O[C@H]2C[C@](C)(NC(=O)CCc3ccc4n3[B-](F)(F)[N+]3=C(C)C=C(C)C3=C4)[C@H](O)[C@H](C)O2)Oc2ccc(cc2Cl)[C@H]1O [Van-BODIPY]
- MIC (E. coli): > 64 µg/mL
- peptidoglycan labelling pattern (Airyscan imaging, in words) (S. aureus ATCC 25923 [1]): label the cells more uniformly
- staining of E. coli (flow cytometry, in words) (E. coli ATCC25922): stained a larger population of cells than the other probes
- staining of S. aureus (flow cytometry, in words) (S. aureus ATCC 25923 [2]): greatest intensity

SMILES: CC(C)C[C@H](C(=O)N[C@H]1C(=O)N[C@@H](CC(N)=O)C(=O)N[C@H]2C(=O)N[C@H]3C(=O)N[C@H](C(=O)N[C@H](C(=O)O)c4cc(O)cc(O)c4-c4cc3ccc4O)[C@H](O)c3ccc(c(Cl)c3)Oc3cc2cc(c3O[C@@H]2O[C@H](CO)[C@@H](O)[C@H](O)[C@H]2O[C@H]2C[C@](C)(N)[C@H](O)[C@H](C)O2)Oc2ccc(cc2Cl)[C@H]1O)N(C)C(=S)Nc1ccc2c(c1)C(=O)OC21c2ccc(O)cc2Oc2cc(O)ccc21 [Van-FITC]
- MIC (E. coli): > 64 µg/mL
- antimicrobial activity at the highest concentration tested (S. aureus): > 32 µg/mL
- peptidoglycan labelling pattern (Airyscan imaging, in words) (S. aureus ATCC 25923 [1]): no fluorescence signal observed at 2 µg/mL
- staining of E. coli (flow cytometry, in words) (E. coli ATCC25922): did not show much staining
- staining of S. aureus (flow cytometry, in words) (S. aureus ATCC 25923 [2]): the worst
